Assay results published in patent US7943795B2, “Vitamin D receptor modulators” (Eli Lilly and Company, priority 2004, dated 2011).

Tests used:
[1] = Mouse hypercalcemia assay; assay type: in vivo
Protocol: 5. The Mouse Hypercalcemia test is described in the “Assay” section of the Description, infra.
The Mouse Hypercalcemia Assay
The Mouse Hypercalcemia Assay is a six day hypercalcemia test for toxicity and selectivity. Acceptable test results are levels greater than 30 μg/kg/day. Preferred assay results are levels greater than 300 μg/kg/day.
Weanling, virus—antibody-free, five to six weeks old female DBF mice (Harlan, Indianapolis, Ind.) are used for all the studies. Animals are allowed to acclimate to local vivarium conditions for 2 days. Mice are maintained on a 12 hr light/dark cycle at 22° C. with ad lib access to food (TD 5001 with 1.2% Ca and 0.9% P, Teklad, Madison, Wis.) and water. The animals then are divided into groups with 4-5 mice per group. Different doses of test compounds prepared in 10% ethanol and 90% sesame oil, or in an aqueous suspension of sodium lauryl sulfate and CMC (the latter formulation for acidic compounds) are administered to mice orally via gavage for 6 days. 1α-25(OH)2D3 0.5 μg/kg/d was also given to one group of mice as the positive control. Serum ionized calcium is evaluated at 6 hours after the last dosing under isoflurane anesthesia by Ciba-Corning Ca++/PH Analyzer, (Model 634, Chiron Diagnostics Corp., East Walpole, Mass.). Raw data of group differences is assessed by analysis of variance (ANOVA) using Fisher's protected least significant difference (PLSD) where the significance level was P<0.05.

rat osteocalcin promoter = assay: OCN (osteocalcin) promoter assay; assay type: cell-based; settings: RG-15 (ROS 17/2.8) cells, 48 hr treatment, luciferase reporter
Protocol: 4. The OCN Promoter test is described in the “Assay” section of the Description, infra.
The OCN (Osteocalcin) Promoter Assay
The OCN Promoter Assay is an indicator and marker for osteoporosis. Desired assay results are EC50 less than or equal to 325 nM. Preferred assay results are less than 50 nM.
The activation of osteocalcin by VDR ligands is evaluated in a rat osteoblast-like cell line RG-15 (ROS 17/2.8) stably expressing rat osteocalcin promoter fused with luciferase reporter gene. The stable cell lines are established as reported before (Activation of Osteocalcin Transcription involves interaction of protein kinase A- and Protein kinase C-dependent pathways. Boguslawski, G., Hale, L. V., Yu, X.-P., Miles, R. R., Onyia, J. E., Santerre R. F., Chandrasekhar, S. J Biol. Chem. 275, 999-1006, 2000). Confluent RG-15 cells maintained in DMEM/F-12 medium (3:1) containing 5% FBS, 300 μg/ml G418 and at 37° C. under 5% CO2/95% air atmosphere are trypsinized (0.25% trypsin) and plated into white opaque 96-well cell culture plates (25000 cells/well). After 24 hr, cells (in DMEM/F-12 medium+2% FBS) are treated with various concentrations of compounds, dissolved in DMSO. The final DMSO concentration remains at 0.01% (v/v). After 48 hr treatment, the medium is removed, cells are lysed with 50 μl of lysis buffer (From Luciferase reporter assay system, Roche Diagnostics, Indianapolis, Ind.) and then assayed for luciferase activity using the Luciferase Reporter Gene Assay kit from Boehringer Mannheim as per manufacturer's specifications.

[2] = no effect level: highest dose that did not cause hypercalcemia, oral gavage for 6 days, female DBF mice, serum ionized calcium
[3] = female, DBF, mouse, in vivo, po, 6 days

Structure (SMILES) | Mouse Hypercal [1, 2] [µg/kg/day] | EC50 (rat osteocalcin promoter) [nM] | Mouse Hypercal [1, 3] [µg/kg/day] | EC50 (rat osteocalcin promoter; Rattus norvegicus, 48 h) [nM]
CCC(CC)(c1ccc(OCC(O)C(C)(C)C)c(C)c1)c1ccc2cc(C(=O)O)ccc2c1 (single isomer, unassigned) [Ex. 2A, 6-{1-Ethyl-1-[4-(2-hydroxy-3,3-dimethyl-butoxy)-3-methyl-phenyl]-propyl}-naphthalene-2-carboxylic acid] | 300 | 6 | – | –
CCC(CC)(c1ccc(OCC(=O)C(C)(C)C)c(C)c1)c1ccc2cc(C(=O)O)ccc2c1 [Ex. 1, 6-{1-[4-(3,3-dimethyl-2-oxobutoxy)-3-methylphenyl]-1-ethylpropyl}naphthalene-2-carboxylic acid] | – | – | 1000 | 2.6
CCC(CC)(c1ccc(OCC(=O)C(C)(C)C)c(C)c1)c1ccc2cc(C(=O)NCC(=O)O)ccc2c1 [Ex. 3, [(6-{1-[4-(3,3-Dimethyl-2-oxo-butoxy)-3-methylphenyl]-1-ethylpropyl}naphthalene-2-carbonyl)amino]acetic acid] | <300 | – | – | 0.1
CCC(CC)(c1ccc(OCC(=O)C(C)(C)C)c(C)c1)c1ccc2cc(C(=O)N(C)C)ccc2c1 [Ex. 4, 6-{1-[4-(3,3-dimethyl-2-oxobutoxy)-3-methylphenyl]-1-ethylpropyl}naphthalene-2-carboxylic acid dimethylamide] | – | – | 1000 | 41
CCC(CC)(c1ccc(OCC(=O)C(C)(C)C)c(C)c1)c1ccc2cc(C(=O)N(C)CC(=O)O)ccc2c1 [Ex. 5, [(6-{1-[4-(3,3-Dimethyl-2-oxobutoxy)-3-methylphenyl]-1-ethylpropyl}naphthalene-2-carbonyl)methylamino]acetic acid] | <30 | – | – | 0.2
